# Data taken from patent US10183022B2, “Pharmaceutical composition for treating ulcerative colitis” (EA Pharma Co., Ltd., priority 2014, dated 2019).
# Tests used:
# Type in all cases: in vivo, human
# [1] = system: ulcerative colitis patients in an active stage; assay: Clinical study, 960 mg orally 3 times a day for 8 weeks: adverse events
# Description: (§1) The compound of Example 1 or the compound of Comparative Example 1 was orally administered after meals 3 times a day. The number of the given tablets was 8 per administration (i.e., the amount of the compound (1) of Example 1 administered was 960 mg per administration). The administration period was 8 weeks. The compounds were administered until the timing after the breakfast on the day before the assessment day at Week 8.
# [2] = system: ulcerative colitis patients in an active stage; assay: Clinical study, 960 mg orally 3 times a day for 8 weeks: subscore for physician's global assessment of Mayo score
# Description: as §1
# (4) Physician's Global Assessment [Investigation Timings: Weeks 0, 2, 4, and 8 (or Discontinuation Time)]
# The investigators or sub-investigators conducted a medical interview with the subjects (for abdominal discomfort, systemic state, investigator's finding, subject's impression, and so forth), and investigated the state on each assessment day.
# The investigators or sub-investigators scored the physician's global assessment according to the following criteria with reference to the other three assessment criteria (stool frequency, bloody stool, and mucosal finding), as well as the abdominal discomfort, systemic state, investigator's finding, subject's impression, and so forth. Note that, on the days of the assessment performed without an endoscope, no mucosal finding was considered in scoring the physician's global assessment.
# [3] = system: ulcerative colitis patients in an active stage; assay: Clinical study, 960 mg orally 3 times a day for 8 weeks: subscore for bloody stool of Mayo score, bloody-stool disappearance rate; parameters: Cases by subscore for bloody stool, figure in parentheses: unit not given here
# Description: as §1
# (2) Bloody Stool [Investigation Timings: Weeks 0, 2, 4, and 8 (or Discontinuation Time)]
# Based on the contents described in the symptom-recording diaries, the investigators or sub-investigators investigated the states of bloody stool in 3 days immediately before each assessment day. Note that when the endoscopic examination on the large intestine was conducted, the investigation days were set to be the closest three days excluding the day of the endoscopic examination on the large intestine, the following day, and if a pre-treatment was performed for the endoscopic examination on the large intestine, the pre-treatment day.
# The bloody stool state on the most severe day among the investigated three days was scored according to the following criteria.
smiles,measurement,setting,value
"COC(=O)[C@H](Cc1ccc(-n2c(=O)c3cc(N(C)C)ccc3n(C)c2=O)cc1)NC(=O)c1c(Cl)cccc1Cl [Example 1, methyl(2S)-2-(2,6-dichlorobenzamide)-3-{4-[6-(dimethylamino)-1-methyl-2,4-dioxo-1,4-dihydroquinazolin-3(2H)-yl]phenyl}propanoate]",Safety (adverse event analysis),[1]; 960 mg orally 3 times a day for 8 weeks,no problem in safety
same,Severe adverse events,[1]; 8-week study period,no severe adverse event occurred
same,Incidence rate of moderate adverse events,[1]; 8-week study period (2/51 cases),3.9%
same,"Number of cases, cross tabulation of subscore for physician's global assessment","[2]; Week 2 score 0, Week 0 score 0",0
same,"Number of cases, cross tabulation of subscore for physician's global assessment","[2]; Week 2 score 0, Week 0 score 1",0
same,"Number of cases, cross tabulation of subscore for physician's global assessment","[2]; Week 2 score 0, Week 0 score 2",3
same,"Number of cases, cross tabulation of subscore for physician's global assessment","[2]; Week 2 score 0, Week 0 score 3",0
same,"Number of cases, cross tabulation of subscore for physician's global assessment","[2]; Week 2 score 1, Week 0 score 0",0
same,"Number of cases, cross tabulation of subscore for physician's global assessment","[2]; Week 2 score 1, Week 0 score 1",3
same,"Number of cases, cross tabulation of subscore for physician's global assessment","[2]; Week 2 score 1, Week 0 score 2",19
same,"Number of cases, cross tabulation of subscore for physician's global assessment","[2]; Week 2 score 1, Week 0 score 3",0
same,"Number of cases, cross tabulation of subscore for physician's global assessment","[2]; Week 2 score 2, Week 0 score 0",0
same,"Number of cases, cross tabulation of subscore for physician's global assessment","[2]; Week 2 score 2, Week 0 score 1",0
same,"Number of cases, cross tabulation of subscore for physician's global assessment","[2]; Week 2 score 2, Week 0 score 2",26
same,"Number of cases, cross tabulation of subscore for physician's global assessment","[2]; Week 2 score 2, Week 0 score 3",0
same,"Number of cases, cross tabulation of subscore for physician's global assessment","[2]; Week 2 score 3, Week 0 score 0",0
same,"Number of cases, cross tabulation of subscore for physician's global assessment","[2]; Week 2 score 3, Week 0 score 1",0
same,"Number of cases, cross tabulation of subscore for physician's global assessment","[2]; Week 2 score 3, Week 0 score 2",0
same,"Number of cases, cross tabulation of subscore for physician's global assessment","[2]; Week 2 score 3, Week 0 score 3",0
same,"Number of cases, cross tabulation of subscore for physician's global assessment","[2]; Week 4 score 0, Week 0 score 0",0
same,"Number of cases, cross tabulation of subscore for physician's global assessment","[2]; Week 4 score 0, Week 0 score 1",0
same,"Number of cases, cross tabulation of subscore for physician's global assessment","[2]; Week 4 score 0, Week 0 score 2",7
same,"Number of cases, cross tabulation of subscore for physician's global assessment","[2]; Week 4 score 0, Week 0 score 3",0
same,"Number of cases, cross tabulation of subscore for physician's global assessment","[2]; Week 4 score 1, Week 0 score 0",0
same,"Number of cases, cross tabulation of subscore for physician's global assessment","[2]; Week 4 score 1, Week 0 score 1",3
same,"Number of cases, cross tabulation of subscore for physician's global assessment","[2]; Week 4 score 1, Week 0 score 2",23
same,"Number of cases, cross tabulation of subscore for physician's global assessment","[2]; Week 4 score 1, Week 0 score 3",0
same,"Number of cases, cross tabulation of subscore for physician's global assessment","[2]; Week 4 score 2, Week 0 score 0",0
same,"Number of cases, cross tabulation of subscore for physician's global assessment","[2]; Week 4 score 2, Week 0 score 1",0
same,"Number of cases, cross tabulation of subscore for physician's global assessment","[2]; Week 4 score 2, Week 0 score 2",18
same,"Number of cases, cross tabulation of subscore for physician's global assessment","[2]; Week 4 score 2, Week 0 score 3",0
same,"Number of cases, cross tabulation of subscore for physician's global assessment","[2]; Week 4 score 3, Week 0 score 0",0
same,"Number of cases, cross tabulation of subscore for physician's global assessment","[2]; Week 4 score 3, Week 0 score 1",0
same,"Number of cases, cross tabulation of subscore for physician's global assessment","[2]; Week 4 score 3, Week 0 score 2",0
same,"Number of cases, cross tabulation of subscore for physician's global assessment","[2]; Week 4 score 3, Week 0 score 3",0
same,"Number of cases, cross tabulation of subscore for physician's global assessment","[2]; Week 8 score 0, Week 0 score 0",0
same,"Number of cases, cross tabulation of subscore for physician's global assessment","[2]; Week 8 score 0, Week 0 score 1",1
same,"Number of cases, cross tabulation of subscore for physician's global assessment","[2]; Week 8 score 0, Week 0 score 2",6
same,"Number of cases, cross tabulation of subscore for physician's global assessment","[2]; Week 8 score 0, Week 0 score 3",0
same,"Number of cases, cross tabulation of subscore for physician's global assessment","[2]; Week 8 score 1, Week 0 score 0",0
same,"Number of cases, cross tabulation of subscore for physician's global assessment","[2]; Week 8 score 1, Week 0 score 1",2
same,"Number of cases, cross tabulation of subscore for physician's global assessment","[2]; Week 8 score 1, Week 0 score 2",28
same,"Number of cases, cross tabulation of subscore for physician's global assessment","[2]; Week 8 score 1, Week 0 score 3",0
same,"Number of cases, cross tabulation of subscore for physician's global assessment","[2]; Week 8 score 2, Week 0 score 0",0
same,"Number of cases, cross tabulation of subscore for physician's global assessment","[2]; Week 8 score 2, Week 0 score 1",0
same,"Number of cases, cross tabulation of subscore for physician's global assessment","[2]; Week 8 score 2, Week 0 score 2",14
same,"Number of cases, cross tabulation of subscore for physician's global assessment","[2]; Week 8 score 2, Week 0 score 3",0
same,"Number of cases, cross tabulation of subscore for physician's global assessment","[2]; Week 8 score 3, Week 0 score 0",0
same,"Number of cases, cross tabulation of subscore for physician's global assessment","[2]; Week 8 score 3, Week 0 score 1",0
same,"Number of cases, cross tabulation of subscore for physician's global assessment","[2]; Week 8 score 3, Week 0 score 2",0
same,"Number of cases, cross tabulation of subscore for physician's global assessment","[2]; Week 8 score 3, Week 0 score 3",0
same,"Cases by subscore for bloody stool, figure in parentheses","[3]; Week 0, score 1",45.1
same,Number of cases by subscore for bloody stool,"[3]; Week 0, score 1",23
same,"Cases by subscore for bloody stool, figure in parentheses","[3]; Week 0, score 2",47.1
same,Number of cases by subscore for bloody stool,"[3]; Week 0, score 2",24
same,"Cases by subscore for bloody stool, figure in parentheses","[3]; Week 0, score 3",7.8
same,Number of cases by subscore for bloody stool,"[3]; Week 0, score 3",4
same,"Cases by subscore for bloody stool, figure in parentheses","[3]; Week 2, score 0",9.8
same,Number of cases by subscore for bloody stool,"[3]; Week 2, score 0",5
same,"Cases by subscore for bloody stool, figure in parentheses","[3]; Week 2, score 1",54.9
same,Number of cases by subscore for bloody stool,"[3]; Week 2, score 1",28
same,"Cases by subscore for bloody stool, figure in parentheses","[3]; Week 2, score 2",33.3
same,Number of cases by subscore for bloody stool,"[3]; Week 2, score 2",17
same,"Cases by subscore for bloody stool, figure in parentheses","[3]; Week 2, score 3",2.0
same,Number of cases by subscore for bloody stool,"[3]; Week 2, score 3",1
same,"Number of cases, cross tabulation of subscore for bloody stool","[3]; Week 2 score 0, Week 0 score 1",2
same,"Number of cases, cross tabulation of subscore for bloody stool","[3]; Week 2 score 0, Week 0 score 2",2
same,"Number of cases, cross tabulation of subscore for bloody stool","[3]; Week 2 score 0, Week 0 score 3",1
same,"Number of cases, cross tabulation of subscore for bloody stool","[3]; Week 2 score 1, Week 0 score 1",18
same,"Number of cases, cross tabulation of subscore for bloody stool","[3]; Week 2 score 1, Week 0 score 2",8
same,"Number of cases, cross tabulation of subscore for bloody stool","[3]; Week 2 score 1, Week 0 score 3",2
same,"Number of cases, cross tabulation of subscore for bloody stool","[3]; Week 2 score 2, Week 0 score 1",3
same,"Number of cases, cross tabulation of subscore for bloody stool","[3]; Week 2 score 2, Week 0 score 2",14
same,"Number of cases, cross tabulation of subscore for bloody stool","[3]; Week 2 score 2, Week 0 score 3",0
same,"Number of cases, cross tabulation of subscore for bloody stool","[3]; Week 2 score 3, Week 0 score 1",0
same,"Number of cases, cross tabulation of subscore for bloody stool","[3]; Week 2 score 3, Week 0 score 2",0
same,"Number of cases, cross tabulation of subscore for bloody stool","[3]; Week 2 score 3, Week 0 score 3",1
same,"Cases by subscore for bloody stool, figure in parentheses","[3]; Week 4, score 0",35.3
same,Number of cases by subscore for bloody stool,"[3]; Week 4, score 0",18
same,"Cases by subscore for bloody stool, figure in parentheses","[3]; Week 4, score 1",43.1
same,Number of cases by subscore for bloody stool,"[3]; Week 4, score 1",22
same,"Cases by subscore for bloody stool, figure in parentheses","[3]; Week 4, score 2",19.6
same,Number of cases by subscore for bloody stool,"[3]; Week 4, score 2",10
same,"Cases by subscore for bloody stool, figure in parentheses","[3]; Week 4, score 3",2.0
same,Number of cases by subscore for bloody stool,"[3]; Week 4, score 3",1
same,"Number of cases, cross tabulation of subscore for bloody stool","[3]; Week 4 score 0, Week 0 score 1",9
same,"Number of cases, cross tabulation of subscore for bloody stool","[3]; Week 4 score 0, Week 0 score 2",8
same,"Number of cases, cross tabulation of subscore for bloody stool","[3]; Week 4 score 0, Week 0 score 3",1
same,"Number of cases, cross tabulation of subscore for bloody stool","[3]; Week 4 score 1, Week 0 score 1",12
same,"Number of cases, cross tabulation of subscore for bloody stool","[3]; Week 4 score 1, Week 0 score 2",9
same,"Number of cases, cross tabulation of subscore for bloody stool","[3]; Week 4 score 1, Week 0 score 3",1
same,"Number of cases, cross tabulation of subscore for bloody stool","[3]; Week 4 score 2, Week 0 score 1",2
same,"Number of cases, cross tabulation of subscore for bloody stool","[3]; Week 4 score 2, Week 0 score 2",7
same,"Number of cases, cross tabulation of subscore for bloody stool","[3]; Week 4 score 2, Week 0 score 3",1
same,"Number of cases, cross tabulation of subscore for bloody stool","[3]; Week 4 score 3, Week 0 score 1",0
same,"Number of cases, cross tabulation of subscore for bloody stool","[3]; Week 4 score 3, Week 0 score 2",0
same,"Number of cases, cross tabulation of subscore for bloody stool","[3]; Week 4 score 3, Week 0 score 3",1
same,"Difference in bloody-stool disappearance rates, Example 1 vs Comparative Example 1 (placebo)",[3]; Week 8,29.4%
same,Bloody-stool disappearing cases,"[3]; Week 8, 51 cases analyzed",25
same,Bloody-stool disappearance rate,"[3]; Week 8, all subjects",49.0%
same,"Cases by subscore for bloody stool, figure in parentheses","[3]; Week 8, score 0",49.0
same,Number of cases by subscore for bloody stool,"[3]; Week 8, score 0",25
same,"Cases by subscore for bloody stool, figure in parentheses","[3]; Week 8, score 1",37.3
same,Number of cases by subscore for bloody stool,"[3]; Week 8, score 1",19
same,"Cases by subscore for bloody stool, figure in parentheses","[3]; Week 8, score 2",11.8
same,Number of cases by subscore for bloody stool,"[3]; Week 8, score 2",6
same,"Cases by subscore for bloody stool, figure in parentheses","[3]; Week 8, score 3",2.0
same,Number of cases by subscore for bloody stool,"[3]; Week 8, score 3",1
same,"Number of cases, cross tabulation of subscore for bloody stool","[3]; Week 8 score 0, Week 0 score 1",13
same,"Number of cases, cross tabulation of subscore for bloody stool","[3]; Week 8 score 0, Week 0 score 2",9
same,"Number of cases, cross tabulation of subscore for bloody stool","[3]; Week 8 score 0, Week 0 score 3",3
same,"Number of cases, cross tabulation of subscore for bloody stool","[3]; Week 8 score 1, Week 0 score 1",8
same,"Number of cases, cross tabulation of subscore for bloody stool","[3]; Week 8 score 1, Week 0 score 2",11
same,"Number of cases, cross tabulation of subscore for bloody stool","[3]; Week 8 score 1, Week 0 score 3",0
same,"Number of cases, cross tabulation of subscore for bloody stool","[3]; Week 8 score 2, Week 0 score 1",2
same,"Number of cases, cross tabulation of subscore for bloody stool","[3]; Week 8 score 2, Week 0 score 2",4
same,"Number of cases, cross tabulation of subscore for bloody stool","[3]; Week 8 score 2, Week 0 score 3",0
same,"Number of cases, cross tabulation of subscore for bloody stool","[3]; Week 8 score 3, Week 0 score 1",0
same,"Number of cases, cross tabulation of subscore for bloody stool","[3]; Week 8 score 3, Week 0 score 2",0
same,"Number of cases, cross tabulation of subscore for bloody stool","[3]; Week 8 score 3, Week 0 score 3",1
